Test: RP, Waters Atlantis T3, 50 × 4.6 mm, 5 µm, 40 °C, 0.8 mL/min, estimated dead time 0.66 min; A: water + 0.05% trifluoroacetic acid; B: acetonitrile + 0.1% formic acid, pH 3; gradient (min/%B) 0/10 1/10 7/95 12/95 12.5/10 14/10
Conditions: stereoisomer not certain
Compound `CC(=O)NC1C(OC2c3ccc(c(Cl)c3)Oc3cc4cc(c3O)Oc3ccc(cc3Cl)CC3NC(=O)C(N)c5ccc(O)c(c5)Oc5cc(O)cc(c5)C(NC3=O)C(=O)NC4C(=O)NC3C(=O)NC2C(=O)NC(C(=O)O)c2cc(O)cc(OC4OC(CO)C(O)C(O)C4O)c2-c2cc3ccc2O)OC(CO)C(O)C1O` (stereo not given) [Teicoplanin A3-1] has an LC retention time of 4.02 min. Compound `COc1cc(Cc2cnc(N)nc2N)cc(OC)c1OC` [Trimethoprim] has an LC retention time of 4.06 min. `CCCC=CC=CC(=O)NC(CC(N)=O)C(=O)NC(CC(N)=O)C(=O)NC(C(=O)NC(CCCN)C(=O)NC(C(=O)NC(C(=O)NC(C(=O)NC(C(=O)NC(Cc1ccccc1)C(=O)NC(CCCN)C(=O)NC(C(=O)NC(C(=O)NC(C(=O)NCC(=O)NC(CC(C)C)C(=O)NC(C)C(=O)NC(C(=O)O)C1CCC(O)C(Cl)C1)C1CCC(O)CC1)C(C)O)C1CCC(O)CC1)C(C)O)C1CCC(O)CC1)C1CCC(O)CC1)C(C)O)C1CCC(O)CC1` (stereo not given) [Ramoplanin A] gave an LC retention time of 5.22 min. Work on `CCC1OC(=O)C(C)C(OC2CC(C)(OC)C(O)C(C)O2)C(C)C(OC2OC(C)CC(N(C)C)C2O)C(C)(OC)CC(C)C(=O)C(C)C(O)C1(C)O` (stereo not given) [Clarithromycin] yielded an LC retention time of 5.91 min. With `C=C(NC(=O)c1csc(-c2nc3c(cc2O)-c2nc(cs2)C(=O)NC(C(C)O)C(=O)NC(=CC)c2nc(cs2)C(=O)NC2CC(O)C(=O)OCc4cccc5[nH]c(c(C)c45)C(=O)SCC(NC(=O)c4csc2n4)c2nc-3cs2)n1)C(N)=O` (stereo not given) [Nosiheptide] the LC retention time was 6.77 min. `CC1(C)SC2C(NC(=O)Cc3ccccc3)C(=O)N2C1C(=O)O` (stereo not given) [Penicillin G] gave an LC retention time of 5.75 min. `CCC(C(=O)O)C1CCC(C)C(C(C)C(O)C(C)C(=O)C(CC)C2OC3(C=CC(O)C4(CCC(C)(C5CCC(O)(CC)C(C)O5)O4)O3)C(C)CC2C)O1` (stereo not given) [Salinomycin] gave an LC retention time of 11.2 min. Work on `CC1(C)SC2C(NC(=O)C(N)c3ccccc3)C(=O)N2C1C(=O)O` (stereo not given) [Ampicillin] yielded an LC retention time of 4.09 min. With `C=C(NC(=O)C(=C)NC(=O)c1csc(C2=NC3c4csc(n4)C4NC(=O)c5csc(n5)C(C(C)(O)C(C)O)NC(=O)C5CSC(=N5)C(=CC)NC(=O)C(C(C)O)NC(=O)c5csc(n5)C3(CC2)NC(=O)C(C)NC(=O)C(=C)NC(=O)C(C)NC(=O)C(C(C)CC)NC2C=Cc3c(C(C)O)cc(nc3C2O)C(=O)OC4C)n1)C(N)=O` (stereo not given) [Thiostrepton] the LC retention time was 6.65 min. In the case of `CC=CC=CC1OC(O)(C(CC)C(=O)NCC=CC=C(C)C(OC)C(C)C2OC(C=CC=CC=C(C)C(=O)c3c(O)cc[nH]c3=O)C(O)C2O)C(O)C(O)C1(C)C` (stereo not given) [Kirromycin], the LC retention time is reported as 6.52 min. `CCCC1CC(C(=O)NC(C(C)Cl)C2OC(SC)C(O)C(O)C2O)N(C)C1` (stereo not given) [Clindamycin] showed an LC retention time of 4.83 min. With `CC(=O)OC1CC2(C)C(CC(O)C3C4(C)CCC(O)C(C)C4CCC32C)C1=C(CCC=C(C)C)C(=O)O` (stereo not given) [Fusidinic acid] the LC retention time was 8.3 min. With `CNC(CC(C)C)C(=O)NC1C(=O)NC(CC(N)=O)C(=O)NC2C(=O)NC3C(=O)NC(C(=O)NC(C(=O)O)c4cc(O)cc(O)c4-c4cc3ccc4O)C(O)c3ccc(c(Cl)c3)Oc3cc2cc(c3OC2OC(CO)C(O)C(O)C2OC2CC(C)(N)C(O)C(C)O2)Oc2ccc(cc2Cl)C1O` (stereo not given) [Vancomycin] the LC retention time was 3.55 min. `CC1C(NC(=O)C(=NOC(C)(C)C(=O)O)c2csc(N)n2)C(=O)N1S(=O)(=O)O` (stereo not given) [Aztreonam] gave an LC retention time of 2.91 min. Compound `COc1cccc2c1C(=O)c1c(O)c3c(c(O)c1C2=O)CC(O)(C(C)=O)CC3OC1CC(N)C(O)C(C)O1` (stereo not given) [Daunomycin] has an LC retention time of 5.44 min. `CNC(=O)CC1NC(=O)c2csc(n2)-c2ccc(-c3nc(C4=NC(C(=O)N5CCCC5C(N)=O)CO4)cs3)nc2-c2csc(n2)-c2csc(n2)C(C(O)c2ccccc2)NC(=O)CNC(=O)c2nc(sc2COC)C(C(C)C)NC(=O)c2nc1sc2C` (stereo not given) [GE2270A] gave an LC retention time of 6.62 min. With `CCCCCCCCCC(=O)NC(Cc1c[nH]c2ccccc12)C(=O)NC(CC(N)=O)C(=O)NC(CC(=O)O)C(=O)NC1C(=O)NCC(=O)NC(CCCN)C(=O)NC(CC(=O)O)C(=O)NC(C)C(=O)NC(CC(=O)O)C(=O)NCC(=O)NC(CO)C(=O)NC(C(C)CC(=O)O)C(=O)NC(CC(=O)c2ccccc2N)C(=O)OC1C` (stereo not given) [Daptomycin] the LC retention time was 5.79 min. `CCC(C)CCCC(=O)NC(CCN)C(=O)NC(C(=O)NC(CCN)C(=O)NC1CCNC(=O)C(C(C)O)NC(=O)C(CCN)NC(=O)C(CCN)NC(=O)C(CC(C)C)NC(=O)C(CC(C)C)NC(=O)C(CCN)NC1=O)C(C)O` (stereo not given) [Colistin] gave an LC retention time of 4.44 min. With `COC1C=COC2(C)Oc3c(C)c(O)c4c(O)c(c(C=NN5CCN(C)CC5)c(O)c4c3C2=O)NC(=O)C(C)=CC=CC(C)C(O)C(C)C(O)C(C)C(OC(C)=O)C1C` (stereo not given) [Rifampicin] the LC retention time was 6.17 min. Compound `COC1C(OC(N)=O)C(O)C(Oc2ccc3c(O)c(NC(=O)c4ccc(O)c(CC=C(C)C)c4)c(=O)oc3c2C)OC1(C)C` (stereo not given) [Novobiocin] has an LC retention time of 7.62 min.

Reference: the RepoRT retention time repository
